Results as given in ChEMBL document CHEMBL5442219.

Columns and labels:
Details in all cases: Compound concentration 10 µM
[1] = biological target: T1, 5-hydroxytryptamine receptor 3A (Homo sapiens) (UniProt P46098)
T1 sequence (whole entry): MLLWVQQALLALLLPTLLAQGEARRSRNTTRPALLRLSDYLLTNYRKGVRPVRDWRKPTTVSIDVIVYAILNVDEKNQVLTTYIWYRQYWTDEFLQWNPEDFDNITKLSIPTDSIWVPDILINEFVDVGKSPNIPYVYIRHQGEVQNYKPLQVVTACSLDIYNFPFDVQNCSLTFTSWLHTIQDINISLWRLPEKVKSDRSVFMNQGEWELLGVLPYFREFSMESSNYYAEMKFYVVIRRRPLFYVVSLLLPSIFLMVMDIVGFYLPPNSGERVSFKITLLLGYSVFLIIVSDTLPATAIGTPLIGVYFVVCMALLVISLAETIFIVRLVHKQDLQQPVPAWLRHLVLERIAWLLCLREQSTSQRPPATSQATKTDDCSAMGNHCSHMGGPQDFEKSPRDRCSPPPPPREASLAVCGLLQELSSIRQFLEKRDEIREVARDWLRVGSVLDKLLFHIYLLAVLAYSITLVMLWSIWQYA
Description: PDSP Primary Binding target: HTR3A - Compounds are tested at 10 uM concentration, plate are incubated at room temperature in the dark for 90 minutes. Reaction are stopped by vacuum filtration onto 0.3% polyethyleneimine soaked filter mats using Filtermate harvester. Scintilation cocktail is then melted onto microwave-dried filters on a hot plate and the radio activity is counted in Microbia counter.

[2] = biological target: T2, Alpha-2A adrenergic receptor (Homo sapiens) (UniProt P08913)
T2 sequence (whole entry): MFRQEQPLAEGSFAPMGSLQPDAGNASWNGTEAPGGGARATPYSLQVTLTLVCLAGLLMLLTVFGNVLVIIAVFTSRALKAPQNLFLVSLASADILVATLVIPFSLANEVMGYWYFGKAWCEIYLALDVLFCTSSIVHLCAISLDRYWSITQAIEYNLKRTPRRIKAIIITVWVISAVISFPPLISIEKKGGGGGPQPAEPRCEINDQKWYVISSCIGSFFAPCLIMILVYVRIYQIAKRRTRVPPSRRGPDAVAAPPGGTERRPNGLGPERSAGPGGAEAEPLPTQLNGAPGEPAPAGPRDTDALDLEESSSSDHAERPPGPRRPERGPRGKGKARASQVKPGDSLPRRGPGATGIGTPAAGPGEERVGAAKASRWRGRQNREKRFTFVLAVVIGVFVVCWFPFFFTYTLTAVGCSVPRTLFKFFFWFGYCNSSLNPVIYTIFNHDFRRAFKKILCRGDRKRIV
Description: PDSP Primary Binding target: ADRA2A - Compounds are tested at 10 uM concentration, plate are incubated at room temperature in the dark for 90 minutes. Reaction are stopped by vacuum filtration onto 0.3% polyethyleneimine soaked filter mats using Filtermate harvester. Scintilation cocktail is then melted onto microwave-dried filters on a hot plate and the radio activity is counted in Microbia counter.

[3] = biological target: T3, Alpha-1D adrenergic receptor (Homo sapiens) (UniProt P25100)
T3 sequence (whole entry): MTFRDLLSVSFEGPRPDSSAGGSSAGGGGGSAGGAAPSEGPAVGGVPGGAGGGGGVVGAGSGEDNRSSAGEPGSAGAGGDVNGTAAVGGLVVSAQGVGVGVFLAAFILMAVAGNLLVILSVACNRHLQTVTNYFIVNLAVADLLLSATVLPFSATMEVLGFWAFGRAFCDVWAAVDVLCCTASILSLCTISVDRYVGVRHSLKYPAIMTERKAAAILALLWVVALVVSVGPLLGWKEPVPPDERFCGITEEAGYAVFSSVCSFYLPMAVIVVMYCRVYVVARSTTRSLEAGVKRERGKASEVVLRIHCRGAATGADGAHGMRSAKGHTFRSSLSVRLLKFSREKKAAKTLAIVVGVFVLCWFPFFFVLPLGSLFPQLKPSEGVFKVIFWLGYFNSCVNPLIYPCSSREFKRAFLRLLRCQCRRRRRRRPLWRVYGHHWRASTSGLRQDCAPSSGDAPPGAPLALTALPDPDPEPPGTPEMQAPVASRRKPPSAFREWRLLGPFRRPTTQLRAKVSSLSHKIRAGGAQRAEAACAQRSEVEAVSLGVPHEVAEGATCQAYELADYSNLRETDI
Description: PDSP Primary Binding target: ADRA1D - Compounds are tested at 10 uM concentration, plate are incubated at room temperature in the dark for 90 minutes. Reaction are stopped by vacuum filtration onto 0.3% polyethyleneimine soaked filter mats using Filtermate harvester. Scintilation cocktail is then melted onto microwave-dried filters on a hot plate and the radio activity is counted in Microbia counter.

[4] = biological target: Sodium-dependent serotonin transporter (Homo sapiens) (UniProt P31645)
Sodium-dependent serotonin transporter (Homo sapiens), sequence (P31645 whole entry, looked up): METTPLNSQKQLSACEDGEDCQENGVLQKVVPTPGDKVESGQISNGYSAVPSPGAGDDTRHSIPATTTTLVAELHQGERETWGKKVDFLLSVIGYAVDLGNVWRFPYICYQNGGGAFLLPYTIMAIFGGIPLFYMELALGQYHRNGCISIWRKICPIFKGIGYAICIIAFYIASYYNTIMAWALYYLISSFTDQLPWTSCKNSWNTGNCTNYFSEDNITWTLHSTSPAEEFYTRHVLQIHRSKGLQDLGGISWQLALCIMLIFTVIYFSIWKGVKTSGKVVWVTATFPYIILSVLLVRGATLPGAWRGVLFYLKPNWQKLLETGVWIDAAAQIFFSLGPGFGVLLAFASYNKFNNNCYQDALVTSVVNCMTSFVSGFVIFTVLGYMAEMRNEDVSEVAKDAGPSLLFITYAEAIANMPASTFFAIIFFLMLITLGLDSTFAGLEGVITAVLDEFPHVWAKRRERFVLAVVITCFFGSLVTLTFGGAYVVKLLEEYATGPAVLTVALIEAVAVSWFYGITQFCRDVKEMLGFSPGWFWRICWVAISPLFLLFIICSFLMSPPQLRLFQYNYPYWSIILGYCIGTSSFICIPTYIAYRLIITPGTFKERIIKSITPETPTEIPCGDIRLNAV
Description: PDSP Primary Binding target: SLC6A4 - Compounds are tested at 10 uM concentration, plate are incubated at room temperature in the dark for 90 minutes. Reaction are stopped by vacuum filtration onto 0.3% polyethyleneimine soaked filter mats using Filtermate harvester. Scintilation cocktail is then melted onto microwave-dried filters on a hot plate and the radio activity is counted in Microbia counter.

[5] = biological target: T4, Muscarinic acetylcholine receptor M5 (Homo sapiens) (UniProt P08912)
T4 sequence (whole entry): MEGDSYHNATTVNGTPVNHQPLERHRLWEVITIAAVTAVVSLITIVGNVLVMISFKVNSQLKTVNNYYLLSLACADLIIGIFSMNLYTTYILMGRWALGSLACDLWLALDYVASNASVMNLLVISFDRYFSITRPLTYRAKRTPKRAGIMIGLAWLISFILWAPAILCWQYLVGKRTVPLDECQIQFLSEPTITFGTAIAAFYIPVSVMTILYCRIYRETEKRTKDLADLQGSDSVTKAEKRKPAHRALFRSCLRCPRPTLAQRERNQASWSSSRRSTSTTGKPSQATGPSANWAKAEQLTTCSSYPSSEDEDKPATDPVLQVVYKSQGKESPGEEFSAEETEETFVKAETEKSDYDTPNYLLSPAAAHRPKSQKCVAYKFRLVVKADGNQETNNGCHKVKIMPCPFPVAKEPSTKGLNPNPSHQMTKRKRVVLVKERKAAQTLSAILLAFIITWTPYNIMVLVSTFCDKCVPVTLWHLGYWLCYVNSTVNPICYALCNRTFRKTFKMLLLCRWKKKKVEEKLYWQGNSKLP
Description: PDSP Primary Binding target: CHRM5 - Compounds are tested at 10 uM concentration, plate are incubated at room temperature in the dark for 90 minutes. Reaction are stopped by vacuum filtration onto 0.3% polyethyleneimine soaked filter mats using Filtermate harvester. Scintilation cocktail is then melted onto microwave-dried filters on a hot plate and the radio activity is counted in Microbia counter.

Row | Compound | inhibition [1] | inhibition [2] | inhibition [3] | inhibition [4] | inhibition [5]
1 | Cc1c(C2=CCN(C(=O)N(C)C(C)C)CC2)nnn1-c1cccnc1F | 8.19% | – | – | – | –
2 | Cc1nnn(-c2ccc(-c3ccc(C4(C(=O)O)CC4)cc3)cc2)c1NC(=O)O[C@H](C)c1ccccc1 | – | 0.57% | 23.9% | – | –
3 | Cc1csc(NC(=O)c2cc(F)cc(Oc3cncnc3)c2)n1 | – | – | – | 21.2% | –
4 | COC1CCN(c2cccc(-c3cc(NC(C)=O)nc(-n4nc(C)cc4C)n3)n2)CC1 | 21.1% | – | 17.4% | – | -2.53%
